{
  "source": "patent US20110152340A1",
  "about": "“Methods for Identifying Subjects With an Increased Likelihood of Responding to DPP-IV Inhibitors” (BRISTOL-MYERS SQUIBB COMPANY, priority 2008, published 2011)",
  "type_in_all_cases": "in vivo, human",
  "key": {"[1]": {"assay": "Saxagliptin clinical trials (Trial A and Trial B): HbA1c response by SNP genotype", "protocol": "The association between the SNPs and the response to saxagliptin was evaluated in two ways. SNPs from the genome-wide SNP panel were tested for association with response to DPP-IV inhibitors by two analytical methodologies. In one method, SNPs were identified with significant differences in mean HBA1C response among individuals with different genotypes on treatment, taking into account covariates such as demographic differences with an analysis of covariance (ANCOVA) statistical model. SNPs with consistent in their effect on HBA1C in both trials were considered for further evaluation. In a second method, SNPs were examined for association with response cluster. SNPs consistently associated with response cluster in both trials were further evaluated for influence on fasting glycosylated hemoglobin or glucose levels using analysis of covariance. Sample: Subjects in BMS clinical trials, (Trial A and Trial B) receiving DPP-IV inhibitor ([…]) therapy. All subjects have diabetes and the study group was mixed with respect to age, race and duration of diabetes. Measures: Single nucleotide polymorphisms (SNPs) in a genome-wide panel were genotyped on all subjects essentially as described in Example 1. […] The SNPs that were genotyped likely represent a sample of the polymorphic variation in each gene and are not exhaustive with regard to coverage of the total genetic variation that may be present in each gene. The SNP for which a statistical association to DPP-IV inhibitor-dependent metabolic abnormalities was confirmed is provided in Table III. Statistical Analyses: Initial analysis to determine SNP association with cluster membership was performed using the genotypic test (2-degrees of freedom) implemented in the program PLINK (Purcell et al., 2007 Amer. Journ. Hum […]: a tool set for whole-genome association and population-based linkage analyses). […] Follow-up analysis was performed employing a statistical package, SPSS v.14 (SPSS Inc. Chicago, Ill.). Some SNP associations were also discovered or confirmed using an ANCOVA modeling approach as described below. SNPs that were associated with differential genotype response were identified by a significant difference in HBA1C response (P<=0.05) in two independent trials. Analysis was performed employing a statistical package, SAS v. 8.2 (SAS Institute Inc., Cary, N.C.). […] Baseline glycosylated hemoglobin (HbA1c) and change in HbA1c after twelve weeks (study A) or twenty-four weeks (study B) of DPP-IV inhibitor therapy for each individual were used in this analysis. […] This process was iteratively repeated until all individuals were clustered into groups, either non-responders (poor response to saxagliptin therapy) or super responders (response to saxagliptin therapy). The two-step clustering routine implemented in SPSS version 12 (Chicago, Ill., US) was used. Differences in means between clusters for HbA1c were evaluated using Kruskal-Wallis test. […] The ANCOVA model provides an estimate of mean final HbA1C after treatment for different genotypes, taking into account clinical and demographic information. […] The SNP genotype was included in the model and the difference in HbA1c was estimated between wildtype homozygous and heterozygous or rare homozygous individuals. SNPs that were associated with differential genotype response were identified by a significant (P<=0.05) difference (in the same direction) in HBA1C response between genotypes in two independent trials. Analysis was performed using contrast estimates with the GLM procedure in SAS v. 8.2 (SAS Institute Inc., Cary, N.C.)."}, "[2]": {"assay": "Saxagliptin clinical trials: fasting glucose response by GRINL1A genotype", "protocol": "(§1) SNPs from the genome-wide SNP panel were tested for association with response to DPP-IV inhibitors by two analytical methodologies. In one method, SNPs were identified with significant differences in mean HBA1C response among individuals with different genotypes on treatment, taking into account covariates such as demographic differences with an analysis of covariance (ANCOVA) statistical model. SNPs with consistent in their effect on HBA1C in both trials were considered for further evaluation. In a second method, SNPs were examined for association with response cluster. SNPs consistently associated with response cluster in both trials were further evaluated for influence on fasting glycosylated hemoglobin or glucose levels using analysis of covariance.\n(§2) Sample: Subjects in BMS clinical trials, (Trial A and Trial B) receiving DPP-IV inhibitor (saxigliptin) therapy. All subjects have diabetes and the study group was mixed with respect to age, race and duration of diabetes. Measures: Single nucleotide polymorphisms (SNPs) in a genome-wide panel were genotyped on all subjects essentially as described in Example 1. […] The SNPs that were genotyped likely represent a sample of the polymorphic variation in each gene and are not exhaustive with regard to coverage of the total genetic variation that may be present in each gene. […] Statistical Analyses: Initial analysis to determine SNP association with cluster membership was performed using the genotypic test (2-degrees of freedom) implemented in the program PLINK (Purcell et al., 2007 Amer. Journ. Hum Genet. 81: 559-75. PLINK: a tool set for whole-genome association and population-based linkage analyses). […] Follow-up analysis was performed employing a statistical package, SPSS v.14 (SPSS Inc. Chicago, Ill.). […] SNPs that were associated with differential genotype response were identified by a significant difference in HBA1C response (P<=0.05) in two independent trials. Analysis was performed employing a statistical package, SAS v. […] Differences in means between clusters for HbA1c were evaluated using Kruskal-Wallis test."}, "[3]": {"assay": "Saxagliptin clinical trials: AUC glucose response by GRINL1A genotype", "protocol": "as §1, §2"}},
  "data": [
    {"compound": "N#C[C@@H]1C[C@@H]2C[C@@H]2N1C(=O)[C@@H](N)C12CC3CC(CC(O)(C3)C1)C2", "note": "[saxagliptin, (1S,3S,55)-2-[(2S)-2-amino-2-(3-hydroxytricyclo[3.3.1.1^3,7]dec-1-yl)-1-oxoethyl]-2-azabicyclo[3.1.0]hexane-3-carbonitrile]", "values": [
      {"measurement": "mean change in HbA1c levels", "setting": "[1]; FIG. 9, GRINL1A position 87,992, reference carriers vs SNP variant carriers", "value": "higher reduction in mean glycosylated hemoglobin"},
      {"measurement": "mean change in HbA1c levels", "setting": "[1]; FIG. 12, HSD11B1 position 34,403, reference carriers vs SNP carriers", "value": "higher reduction in mean glycosylated hemoglobin"},
      {"measurement": "mean change in HbA1c levels", "setting": "[1]; FIG. 13, CHST10 position 24,707, reference carriers vs SNP carriers", "value": "higher reduction in mean glycosylated hemoglobin"},
      {"measurement": "mean change in HbA1c levels", "setting": "[1]; FIG. 14, CHST10 position 34,078, reference carriers vs SNP carriers", "value": "higher reduction in mean glycosylated hemoglobin"},
      {"measurement": "mean change in HbA1c levels", "setting": "[1]; FIG. 15, CHST10 position 35,799, reference carriers vs SNP carriers", "value": "higher reduction in mean glycosylated hemoglobin"},
      {"measurement": "mean change in HbA1c levels", "setting": "[1]; FIG. 16, CHST10 position 38,709, reference carriers vs SNP carriers", "value": "higher reduction in mean glycosylated hemoglobin"},
      {"measurement": "mean change in HbA1c levels", "setting": "[1]; FIG. 17, CHST10 position 38,947, reference carriers vs SNP carriers", "value": "higher reduction in mean glycosylated hemoglobin"},
      {"measurement": "mean change in HbA1c levels", "setting": "[1]; FIG. 18, CHST10 position 41,180, reference carriers vs SNP carriers", "value": "higher reduction in mean glycosylated hemoglobin"},
      {"measurement": "mean change in HbA1c levels following saxagliptin treatment", "setting": "[1]; Trial A and Trial B, variant SNP carriers at positions 24,707, 34,078, 35,799, 38,709, 38,947 or 41,180 of SEQ ID NO: 5 (CHST10), compared with reference allele homozygotes", "value": "little change in HbA1c levels"},
      {"measurement": "mean HbA1C in response to therapy", "setting": "[1]; homozygous reference allele (T/T) vs heterozygous (T/C) individuals at position 26,472 of SEQ ID NO: 63 or 64 (TEKT5), both trials", "value": "lower mean HbA1C in response to therapy than heterozygous individuals"},
      {"measurement": "mean change in HbA1c levels following saxagliptin treatment", "setting": "[1]; reference allele homozygotes at position 34,403 of SEQ ID NO: 3 or 4 (HSD11B1), compared to carriers of the variant allele", "value": "greaterreduction in mean HbA1c levels"},
      {"measurement": "mean change in HbA1c levels following saxagliptin treatment", "setting": "[1]; subjects homozygous for the reference allele (T/T) at position 87,992 of SEQ ID NO: 1 or 2 (GRINL1A)", "value": "significant reduction in mean HbA1c levels"},
      {"measurement": "mean change in HbA1c levels following saxagliptin treatment", "setting": "[1]; variant SNP carriers (C/T or C/C) at position 87,992 of SEQ ID NO: 1 or 2 (GRINL1A)", "value": "little change in HbA1c levels"},
      {"measurement": "mean change in HbA1c levels following saxagliptin treatment", "setting": "[1]; variant SNP carriers at position 34,403 of SEQ ID NO: 3 or 4 (HSD11B1)", "value": "little change in HbA1c levels"},
      {"measurement": "mean change in fasting glucose levels", "setting": "[2]; FIG. 10, GRINL1A position 87,992, reference carriers vs SNP carriers", "value": "higher reduction in mean fasting glucose levels"},
      {"measurement": "mean change in fasting glucose levels following saxagliptin treatment", "setting": "[2]; subjects homozygous for the reference allele (T/T) at position 87,992 of SEQ ID NO: 1 (GRINL1A), compared to carriers of the variant allele", "value": "significant reduction in the mean fasting glucose levels"},
      {"measurement": "mean change in fasting glucose levels following saxagliptin treatment", "setting": "[2]; variant SNP carriers (C/T or C/C) at position 87,992 of SEQ ID NO: 1 (GRINL1A), compared with matched placebo controls", "value": "little change in the fasting glucose levels"},
      {"measurement": "mean change in AUC Glucose levels", "setting": "[3]; FIG. 11, GRINL1A position 87,992, reference carriers vs SNP carriers", "value": "higher reduction in AUC Glucose levels"},
      {"measurement": "mean change in AUC glucose levels following saxagliptin treatment", "setting": "[3]; GRINL1A variant SNP carriers", "value": "little change in the AUC glucose levels"},
      {"measurement": "mean change in AUC glucose levels following saxagliptin treatment", "setting": "[3]; those homozygous for the GRINL1A reference allele", "value": "significant reduction in the AUC glucose levels"}
    ]}
  ]
}
